Reference: patent US12275729B2 (Merck Sharp & Dohme LLC, priority 2017, dated 2025)

Assays:
IDO1 [1] = molecular target: T1, IDO1 (Homo sapiens, UniProt P14902); experiment: IDO1 Human Whole Blood Assay; type: cell-based; set-up: Human whole blood was drawn in sodium heparin coated tubes from healthy internal donors; from tissue; host or cells: human whole blood from healthy donors, stimulated with LPS and IFNγ; conditions: LPS and IFNγ stimulated
IDO1 [2] = molecular target: T1, IDO1; experiment: IDO1 Cellular Assay in HeLa Cells Stimulated with IFNγ; type: cell-based
[3] = about 48 hours, read-out: Hela IC50

T1 sequence (P14902 whole entry): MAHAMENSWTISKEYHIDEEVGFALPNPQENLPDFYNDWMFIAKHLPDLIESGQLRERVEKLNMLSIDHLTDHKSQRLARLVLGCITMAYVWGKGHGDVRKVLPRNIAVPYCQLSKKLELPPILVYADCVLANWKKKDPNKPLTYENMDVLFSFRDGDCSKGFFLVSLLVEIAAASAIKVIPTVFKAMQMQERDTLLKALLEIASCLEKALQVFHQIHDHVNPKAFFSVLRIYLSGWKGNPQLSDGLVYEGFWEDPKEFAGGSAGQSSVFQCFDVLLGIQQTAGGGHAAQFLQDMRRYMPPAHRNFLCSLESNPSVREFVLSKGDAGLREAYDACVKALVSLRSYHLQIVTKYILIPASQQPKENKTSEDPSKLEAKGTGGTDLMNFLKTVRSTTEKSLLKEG

| IC50 (IDO1 [1]) | IC50 (IDO1 [2]; read-out: Hela IC50) | IC50 (IDO1 [2]; [3]) | IC50 (IDO1 [2]; value in running text, read-out: Hela Cell IC50) | Compound |
| --- | --- | --- | --- | --- |
| 8 nM | 2.02 nM | – | – | CCC(COC)OC(=O)N1CCCc2nc(C(C)NC(=O)c3ccc(F)cc3)ccc21 (stereo not shown) [Example 331, 1-methoxybutan-2-yl 6-(1-(4-fluorobenzamido)ethyl)-3,4-dihydro-1,5-naphthyridine-1(2H)-carboxylate] |
| 1140 nM | – | 7.3 nM | – | CC(NC(=O)c1ccc(F)cc1)c1ccc2c(n1)CCCN2C(=O)c1c(Cl)cccc1Cl (stereo not shown) [Example 150, N-{1-[5-(2,6-dichlorobenzene-1-carbonyl)-5,6,7,8-tetrahydro-1,5-naphthyridin-2-yl]ethyl}-4-fluorobenzamide] |
| 131 nM | – | 1.6 nM | – | O=C(Nc1ccc(F)cc1)C1(c2ccc3c(n2)CCCN3c2ccnc(C(F)(F)F)n2)COC1 [Example 393, N-(4-fluorophenyl)-3-(5-(2-(trifluoromethyl)pyrimidin-4-yl)-5,6,7,8-tetrahydro-1,5-naphthyridin-2-yl)oxetane-3-carboxamide] |
| 42 nM | – | 1.91 nM | – | Cc1cccc(N2CCCc3nc(C4(NC(=O)c5ccc(Cl)cc5)CCC4)ccc32)n1 [Example 405, 4-chloro-N-(1-(5-(6-methylpyridin-2-yl)-5,6,7,8-tetrahydro-1,5-naphthyridin-2-yl)cyclobutyl)benzamide] |
| 140 nM | 3.82 nM | – | – | CC(C(=O)Nc1ccc(F)cc1)c1ccc2c(n1)CCCN2c1ccnc(C2CC2)n1 (stereo not shown) [Example 366, 2-(5-(2-cyclopropylpyrimidin-4-yl)-5,6,7,8-tetrahydro-1,5-naphthyridin-2-yl)-N-(4-fluorophenyl)propanamide] |
| 545 nM | – | 7.9 nM | – | CC(C(=O)Nc1ccc(F)cc1)c1ccc2c(c1)CCCN2Cc1cccc(Cl)c1 (racemic) [Example 224, 2-{1-[(3-chlorophenyl)methyl]-1,2,3,4-tetrahydroquinolin-6-yl}-N-(4-fluorophenyl)propanamide] |
| 393 nM | – | 6.3 nM | – | COC(=O)N1CCCc2nc(C(C)NC(=O)c3ccc(Cl)cc3)ccc21 (stereo not shown) [Example 213, methyl 6-{1-[(4-chlorobenzene-1-carbonyl)amino]ethyl}-3,4-dihydro-1,5-naphthyridine-1(2H)-carboxylate] |
| 239 nM | 3400 nM | – | – | CCN(CC)CCOC(=O)N1CCCc2nc(C(C)NC(=O)c3ccc(F)cc3)ccc21 (stereo not shown) [Example 324, 2-(diethylamino)ethyl 6-(1-(4-fluorobenzamido)ethyl)-3,4-dihydro-1,5-naphthyridine-1(2H)-carboxylate] |
| 43 nM | – | 2.5 nM | – | CC(C(=O)Nc1ccc(F)cc1)c1ccc2c(c1)CCCN2C(=O)c1cccc(Cl)c1 (racemic) [Example 50, 2-[1-(3-chlorobenzene-1-carbonyl)-1,2,3,4-tetrahydroquinolin-6-yl]-N-(4-fluorophenyl)propanamide] |
| 34 nM | – | 2.7 nM | – | CC(C(=O)Nc1ccc(F)cc1)c1ccc2c(n1)CCCN2C(=O)C1CCOCC1 (stereo not shown) [Example 165, N-(4-fluorophenyl)-2-[5-(oxane-4-carbonyl)-5,6,7,8-tetrahydro-1,5-naphthyridin-2-yl]propanamide] |
| 263 nM | – | 3.7 nM | – | C[C@H](NC(=O)c1ccc(Cl)cc1)c1ccc2c(n1)OCCN2C(=O)c1cccc(Cl)c1 (single isomer, unassigned) [Example 254, 4-chloro-N-(1-(1-(3-chlorobenzoyl)-2,3-dihydro-1H-pyrido[2,3-b][1,4]oxazin-6-yl)ethyl)benzamide] |
| 4 nM | – | – | 3.3 nM | Cc1nccc(N2CCCCc3nc(C4(NC(=O)c5ccc(F)cc5)CC4)ccc32)n1 [Example 432, 4-fluoro-N-(1-(5-(2-methylpyrimidin-4-yl)-6,7,8,9-tetrahydro-5H-pyrido[3,2-b]azepin-2-yl)cyclopropyl)benzamide] |
| 149 nM | – | 4.7 nM | – | CC(C(=O)Nc1ccc(F)cc1)c1ccc2c(c1)CCCN2Cc1cccc(Cl)c1 (single isomer, unassigned) [Example 225, 2-{1-[(3-chlorophenyl)methyl]-1,2,3,4-tetrahydroquinolin-6-yl}-N-(4-fluorophenyl)propanamide] |
| 557 nM | – | 5.4 nM | – | CCn1ccc(N2CCCc3cc(C4(C(=O)Nc5ccc(F)cn5)CCC4)ccc32)n1 [Example 232, 1-[1-(1-ethyl-H-pyrazol-3-yl)-1,2,3,4-tetrahydroquinolin-6-yl]-N-(5-fluoropyridin-2-yl)cyclobutane-1l-carboxamide] |
| 93 nM | – | 3 nM | – | O=C(c1cccc(Cl)c1)N1CCc2nc(C3(C(=O)Nc4ccc(F)cc4)CCC3)ccc21 [Example 275, 1-[1-(3-chlorobenzene-1-carbonyl)-2,3-dihydro-1H-pyrrolo[3,2-b]pyridin-5-yl]-N-(4-fluorophenyl)cyclobutane-1-carboxamide] |
| 4950 nM | 1.1 nM | – | – | COC[C@H](C)OC(=O)N1CCCc2nc(C(C)NC(=O)c3ccc(Cl)cc3)ccc21 (stereo partly drawn) [Example 330, (S)-1-methoxypropan-2-yl 6-(1-(4-chlorobenzamido)ethyl)-3,4-dihydro-1,5-naphthyridine-1(2H)-carboxylate] |
| 45 nM | – | 2.2 nM | – | C[C@@H](C(=O)Nc1ccc(F)cc1)c1ccc2c(c1)CCCN2C(=O)c1cccc(Cl)c1 (single isomer, unassigned) [Example 53] |
| 6 nM | – | 1.8 nM | – | Cc1ccnc(C(=O)N2CCCc3nc(C(C)NC(=O)c4ccc(Cl)cc4)ccc32)n1 (stereo not shown) [Example 287, 4-chloro-N-(1-(5-(4-methylpyrimidine-2-carbonyl)-5,6,7,8-tetrahydro-1,5-naphthyridin-2-yl)ethyl)benzamide] |
| 21 nM | – | 1.69 nM | – | Cc1nccc(N2CCCc3nc(C4(NC(=O)c5ccc(Br)cc5)CC4)ccc32)n1 [Example 301, 4-bromo-N-(1-(5-(2-methylpyrimidin-4-yl)-5,6,7,8-tetrahydro-1,5-naphthyridin-2-yl)cyclopropyl)benzamide] |
| 135 nM | – | 7.3 nM | – | CC(NC(=O)c1ccc(F)cc1)c1ccc2c(n1)CCCN2C(=O)c1cc(C(F)F)ccn1 (stereo not shown) [Example 279, N-(1-(5-(4-(difluoromethyl)picolinoyl)-5,6,7,8-tetrahydro-1,5-naphthyridin-2-yl)ethyl)-4-fluorobenzamide] |
